# Active and inactive are the calls of the source. The calls are words filed in the database; no cut-off is given here.
# Tests used:
# [1] = test system: Protein cereblon/GTPase KRas (Homo sapiens), P01116+Q96SW2 [G12D]; assay: PROTAC activity at CRBN/KRAS G12D mutant in human ASPC1 cells assessed as induction of KRAS G12D mutant degradation at 5 nM measured after 24 hrs by immunoblot analysis relative to control; format: cell-based
# [2] = test system: Protein cereblon/GTPase KRas (Homo sapiens), P01116+Q96SW2 [G12D]; assay: PROTAC activity at CRBN/KRAS G12D mutant in human ASPC1 cells assessed as induction of KRAS G12D mutant degradation at 50 nM measured after 24 hrs by immunoblot analysis relative to control; format: cell-based
# ASPC1 = assay: Antiproliferative activity against human ASPC1 cells harbouring KRAS G12D mutant assessed as inhibition of cell growth measured after 72 hrs by Cell titer glo method; format: functional, cell-based; details: ASPC1, 72 h
# [3] = Antitumor activity against human PK-59 cells xenografted in female Balb/c nude mouse model assessed as tumor growth inhibition at 1.81 mg/kg, iv QW measured after 28 days relative to control; format: functional; details: PK-59, 672 h, time 28 day, read-out: TGI
# [4] = Inhibition of ERK phosphorylation in human GP2d cells harbouring KRAS G12D mutant measured after 24 hrs; format: cell-based
# [5] = Toxicity in female Balb/c nude mouse xenografted with human PK-59 cells assessed as change in body weight at 1.8 mg/kg, iv QW measured after 28 days; format: organism-based; details: in vivo, 672 h, time 28 day
# AGS = assay: Antiproliferative activity against human AGS cells harbouring KRAS G12D mutant assessed as inhibition of cell growth measured after 72 hrs by Cell titer glo method; format: functional, cell-based
# [6] = Inhibition of ERK phosphorylation in human PK-59 cells harbouring KRAS G12D mutant measured after 24 hrs; format: cell-based; details: PK-59, 24 h
# [7] = Inhibition of Raf (unknown origin)/GTP loaded KRas G12D mutant interaction preincubated for 15 mins followed by anti-tag1-eu3 and Tag2-XL665 antibody addition and measured for 120 mins by HTRF method; design: species or system Homo sapiens
# [8] = Antiproliferative activity against human PK-59 cells harbouring KRAS G12D mutant assessed as inhibition of cell growth measured after 72 hrs by Cell titer glo method; format: functional, cell-based; details: PK-59, 72 h
# [9] = Inhibition of ERK phosphorylation in human AGS cells harbouring KRAS G12D mutant measured after 24 hrs; format: cell-based
# [10] = Inhibition of ERK phosphorylation in human ASPC1 cells harbouring KRAS G12D mutant measured after 24 hrs; format: cell-based; details: ASPC1, 24 h
# [11] = Antiproliferative activity against human GP2d cells harbouring KRAS G12D mutant assessed as inhibition of cell growth measured after 72 hrs by Cell titer glo method; format: functional, cell-based
# [12] = test system: Protein cereblon/GTPase KRas (Homo sapiens), P01116+Q96SW2 [G12D]; assay: PROTAC activity at CRBN/KRAS G12D mutant in human ASPC1 cells assessed as induction of KRAS G12D mutant degradation at 100 nM measured after 24 hrs by immunoblot analysis relative to control; format: cell-based
# [13] = test system: Protein cereblon/GTPase KRas (Homo sapiens), P01116+Q96SW2 [G12D]; assay: PROTAC activity at CRBN/KRAS G12D mutant in human ASPC1 cells assessed as induction of KRAS G12D mutant degradation at 1 uM measured after 24 hrs by immunoblot analysis relative to control; format: cell-based
# [14] = test system: Protein cereblon/GTPase KRas (Homo sapiens), P01116+Q96SW2 [G12D]; assay: PROTAC activity at CRBN/KRAS G12D mutant in human ASPC1 cells assessed as induction of KRAS G12D mutant degradation at 5 uM measured after 24 hrs by immunoblot analysis relative to control; format: cell-based
# [15] = test system: Protein cereblon/GTPase KRas (Homo sapiens), P01116+Q96SW2 [G12D]; assay: PROTAC activity at CRBN/KRAS G12D mutant in human ASPC1 cells assessed as induction of KRAS G12D mutant degradation at 15 nM measured after 24 hrs by immunoblot analysis relative to control; format: cell-based
# GP2d = assay: PROTAC activity at CRBN/KRAS G12D mutant in human GP2d cells assessed as induction of KRAS G12D mutant degradation at 0.004 to 250 nM measured after 24 hrs by immunoblot analysis; format: cell-based; details: dose 0.004-250 nM
# GTPase KRas = GTPase KRas (Homo sapiens, UniProt P01116, G12D); assay: Binding affinity to 6 His-tagged GDP-loaded human KRAS G12D mutant assessed as GDP-GTP exchange preincubated for 30 mins followed by GTP addition for 30 mins by HTRF method
# Sequence of GTPase KRas (P01116 whole entry G12D): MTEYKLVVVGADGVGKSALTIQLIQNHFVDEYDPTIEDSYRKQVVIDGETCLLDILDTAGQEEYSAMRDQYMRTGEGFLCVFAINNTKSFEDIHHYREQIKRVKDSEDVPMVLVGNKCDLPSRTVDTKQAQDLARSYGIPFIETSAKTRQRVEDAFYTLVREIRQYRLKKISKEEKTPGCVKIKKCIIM
# Sequence of Protein cereblon/GTPase KRas (Homo sapiens), P01116+Q96SW2 [G12D] (P01116 whole entry G12D): as above
# Sequence of Protein cereblon/GTPase KRas (Homo sapiens), P01116+Q96SW2 [G12D] (Q96SW2 whole entry partner): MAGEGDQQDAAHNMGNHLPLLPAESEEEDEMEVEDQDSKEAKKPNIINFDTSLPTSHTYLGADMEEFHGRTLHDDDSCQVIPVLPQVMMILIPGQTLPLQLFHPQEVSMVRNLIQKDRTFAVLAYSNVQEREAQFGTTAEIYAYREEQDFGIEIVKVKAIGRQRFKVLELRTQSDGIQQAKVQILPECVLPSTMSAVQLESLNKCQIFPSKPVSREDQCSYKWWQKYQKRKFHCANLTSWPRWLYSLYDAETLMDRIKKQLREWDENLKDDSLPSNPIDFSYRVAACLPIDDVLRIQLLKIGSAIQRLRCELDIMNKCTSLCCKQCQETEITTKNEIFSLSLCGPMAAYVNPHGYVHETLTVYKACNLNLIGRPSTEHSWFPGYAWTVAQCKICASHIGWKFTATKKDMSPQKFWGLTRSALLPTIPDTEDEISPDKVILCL
SMILES,Activity [1],Activity [2],Activity [12],also measured
C#Cc1c(F)ccc2cc(O)cc(-c3ncc4c(N5CC6CCC(C5)N6)nc(OCC5(CN6CCC7(CC6)CC(N6CCN(c8ccc(NC9CCC(=O)NC9=O)cc8F)CC6)C7)CC5)nc4c3F)c12 (stereo not given),54%,64%,–,–
C#Cc1c(F)ccc2cc(O)cc(-c3ncc4c(N5CC6CCC(C5)N6)nc(OCC5(CN6CCC7(CC6)CC(N6CCC(c8cccc(N9CCC(=O)NC9=O)c8)CC6)C7)CC5)nc4c3F)c12,0%,-10%,–,–
C#Cc1c(F)ccc2cc(O)cc(-c3ncc4c(N5CC6CCC(C5)N6)nc(OC[C@@]56CCCN5C[C@H](F)C6)nc4c3F)c12 [MRTX-1133],–,–,–,IC50 (ASPC1): 56.8 nM; inhibition in vivo at 1.81 mg/kg [3]: 58.7%; IC50 [4]: 0.87 nM; Activity [5]: Non-toxic; IC50 (AGS): 2.43 nM; IC50 [6]: 4.2 nM; IC50 [7]: 1.43 nM; IC50 [8]: 2.9 nM; IC50 [9]: 24.7 nM; IC50 [10]: 20.3 nM; IC50 [11]: 0.91 nM
C#Cc1c(F)ccc2cc(O)cc(-c3ncc4c(N5CC6CCC(C5)N6)nc(OCCCN5CCN(CC(=O)N6CCN(c7cccc8c7C(=O)N(C7CCC(=O)NC7=O)C8=O)CC6)CC5)nc4c3F)c12 (stereo not given),–,2%,0%,Activity [13]: 7%; Activity [14]: 7%
C#Cc1c(F)ccc2cc(O)cc(-c3ncc4c(N5CC6CCC(C5)N6)nc(OCCCN5CCN(C(=O)CN6CCN(c7cccc8c7C(=O)N(C7CCC(=O)NC7=O)C8=O)CC6)CC5)nc4c3F)c12 (stereo not given),–,12%,8%,Activity [13]: 0%; Activity [14]: 7%
C#Cc1c(F)ccc2cc(O)cc(-c3ncc4c(N5CC6CCC(C5)N6)nc(OCC5(CN6CCC7(CC6)CC(N6CCC(c8cccc9c8C(=O)N(C8CCC(=O)NC8=O)C9=O)CC6)C7)CC5)nc4c3F)c12 (stereo not given),-3%,-12%,–,–
C#Cc1c(F)ccc2cc(O)cc(-c3ncc4c(N5CC6CCC(C5)N6)nc(OCC5(CN6CCC7(CC6)CC(N6CCN(c8ccc9c(c8)C(=O)N(C8CCC(=O)NC8=O)C9=O)CC6)C7)CC5)nc4c3F)c12 (stereo not given),48%,64%,–,–
C#Cc1c(F)ccc2cc(O)cc(-c3ncc4c(N5CC6CCC(C5)N6)nc(OCC5(CN6CCC7(CC6)CC(N6CCC(c8ccc9c(c8)C(=O)N(C8CCC(=O)NC8=O)C9=O)CC6)C7)CC5)nc4c3F)c12 (stereo not given),37%,59%,–,–
C#Cc1c(F)ccc2cc(O)cc(-c3ncc4c(N5CC6CCC(C5)N6)nc(OCC5(CN6CCC7(CC6)CC(N6CCN(c8ccc(NC9%10CC(C9)C(=O)NC%10=O)cc8F)CC6)C7)CC5)nc4c3F)c12,68%,67%,–,–
C#Cc1c(F)ccc2cc(O)cc(-c3ncc4c(N5CC6CCC(C5)N6)nc(OCC5(CN6CCC7(CC6)CC(N6CCC(c8ccc(NC9CCC(=O)NC9=O)cc8F)CC6)C7)CC5)nc4c3F)c12 (stereo not given),84%,79%,–,–
C#Cc1c(F)ccc2cc(O)cc(-c3ncc4c(N5CC6CCC(C5)N6)nc(OCC5(CN6CCC7(CC6)CC(N6CCN(c8cccc9c8C(=O)N(C8CCC(=O)NC8=O)C9=O)CC6)C7)CC5)nc4c3F)c12 (stereo not given),21%,34%,–,–
C#Cc1c(F)ccc2cc(O)cc(-c3ncc4c(N5CC6CCC(C5)N6)nc(OCC5(CN6CCC7(CC6)CCN(c6ccc8c(c6)C(=O)N(C6CCC(=O)NC6=O)C8=O)CC7)CC5)nc4c3F)c12 (stereo not given),–,57%,–,Activity [15]: 32%
C#Cc1c(F)ccc2cc(O)cc(-c3ncc4c(N5CC6CCC(C5)N6)nc(OCCCN5CCN(CC(=O)N6CCN(c7ccc8c(c7)C(=O)N(C7CCC(=O)NC7=O)C8=O)CC6)CC5)nc4c3F)c12 (stereo not given),–,1%,-1%,Activity [13]: 4%; Activity [14]: 9%
C#Cc1c(F)ccc2cc(O)cc(-c3ncc4c(N5CC6CCC(C5)N6)nc(OCC5(CN6CCC7(CC6)CC(N6CCC(c8ccc(C9CCC(=O)NC9=O)cc8)CC6)C7)CC5)nc4c3F)c12 (stereo not given),32%,81%,–,–
C#Cc1c(F)ccc2cc(O)cc(-c3ncc4c(N5CC6CCC(C5)N6)nc(OCC5(CN6CCN(c7ccc8c(c7)C(=O)N(C7CCC(=O)NC7=O)C8=O)CC6)CC5)nc4c3F)c12 (stereo not given),–,–,58%,–
C#Cc1c(F)ccc2cc(O)cc(-c3ncc4c(N5CC6CCC(C5)N6)nc(OCCCN5CCN(C(=O)CN6CCN(c7ccc8c(c7)C(=O)N(C7CCC(=O)NC7=O)C8=O)CC6)CC5)nc4c3F)c12 (stereo not given),–,9%,10%,Activity [13]: 21%; Activity [14]: 23%
C#Cc1c(F)ccc2cc(O)cc(-c3ncc4c(N5CC6CCC(C5)N6)nc(OCC5(CN6CCN(C(=O)CN7CCN(c8ccc9c(c8)C(=O)N(C8CCC(=O)NC8=O)C9=O)CC7)CC6)CC5)nc4c3F)c12 (stereo not given),–,–,40%,–
C#Cc1c(F)ccc2cc(O)cc(-c3ncc4c(N5CC6CCC(C5)N6)nc(OCC5(CN6CCC7(CC6)CC(N6CCC(c8cccc(C9CCC(=O)NC9=O)c8)CC6)C7)CC5)nc4c3F)c12 (stereo not given),-8%,-20%,–,–
C#Cc1c(F)ccc2cc(O)cc(-c3ncc4c(N5CC6CCC(C5)N6)nc(OCC5(CN6CCC7(CC6)CC(N6CCN(c8ccc(N9CCC(=O)NC9=O)cc8)CC6)C7)CC5)nc4c3F)c12,6%,2%,–,–
C#Cc1c(F)ccc2cc(O)cc(-c3ncc4c(N5CC6CCC(C5)N6)nc(OCC5(CN6CCC7(CC6)CC(N6CCN(c8cc9c(cc8F)c(N8CCC(=O)N(C)C8=O)nn9C)CC6)C7)CC5)nc4c3F)c12,–,–,–,Activity (GP2d): inactive; IC50 (GTPase KRas): 4.02 nM

# — ChEMBL document CHEMBL6177994 (J Med Chem, 2025)
